Data taken from US12377103B2, “Use of bromodomain-containing protein 9 inhibitors to treat and/or prevent uterine leiomyosarcoma” (The University of Chicago, priority 2022, dated 2025).

Assays:
[1] = system: ovarian cancer; conditions: associated with cell cycle arrest, apoptosis induction, metabolic alterations; cited from earlier work
[2] = system: macrophages; conditions: cited from earlier work
[3] = system: SK-UT-1 cells; assay: Proliferation assay (trypan blue exclusion), SK-UT-1; format: cell-based, human; conditions: 1-25 μM, 48 h, FIG. 4C
Procedure: (§1) The leiomyosarcoma (uLMS) cell line (SK-UT1, ATCC® HTB-114TM) (ATCC, Manassas, VA, USA) was cultured and maintained in ATCC-formulated Eagle's Minimum Essential Medium with 10% of fetal bovine serum. In addition, the uterine sarcoma cell line (MES-SA) (ATCC, Manassas, VA, USA) was cultured and maintained in McCoy's 5A medium. The immortalized human leiomyoma cell line (HuLM) and immortalized human uterine smooth muscle (UTSM) cells were a generous gift from Professor Darlene Dixon. The HuLM and UTSM cell lines were cultured and maintained in phenol red-free, Dulbecco's Modified Eagle Medium: Nutrient Mixture F-12. These cell lines, covering the spectrum from normal cell line (UTSM), benign uterine tumor cell line (HuLM), and uterine malignant cell lines (uLMS), were used to better understand the tumor progression linking to the BRD9 dysregulation in uLMS. BRD9 inhibitor (iBRD9) TP-472 was purchased from Tocris (Cat #6000, Minneapolis, MN, USA).
(§2) Cell proliferation was measured using trypan blue exclusion assay; 4 104 cells per well were seeded into 12-well tissue culture plates, treated with the iBRD9 (TP-472) at a dose range from 1-25 μM for 48 h. This assay was performed three times in triplicate.
(§3) Trypan blue exclusion assay was performed in SK-UT-1 and MES-SA cell lines treated for 48 h with TP-472 at dose ranges from 1-25 μM.

[4] = molecular target: BRD9 (Homo sapiens, UniProt Q9H8M2); conditions: cited from earlier work
Sequence of BRD9 (Q9H8M2 whole entry): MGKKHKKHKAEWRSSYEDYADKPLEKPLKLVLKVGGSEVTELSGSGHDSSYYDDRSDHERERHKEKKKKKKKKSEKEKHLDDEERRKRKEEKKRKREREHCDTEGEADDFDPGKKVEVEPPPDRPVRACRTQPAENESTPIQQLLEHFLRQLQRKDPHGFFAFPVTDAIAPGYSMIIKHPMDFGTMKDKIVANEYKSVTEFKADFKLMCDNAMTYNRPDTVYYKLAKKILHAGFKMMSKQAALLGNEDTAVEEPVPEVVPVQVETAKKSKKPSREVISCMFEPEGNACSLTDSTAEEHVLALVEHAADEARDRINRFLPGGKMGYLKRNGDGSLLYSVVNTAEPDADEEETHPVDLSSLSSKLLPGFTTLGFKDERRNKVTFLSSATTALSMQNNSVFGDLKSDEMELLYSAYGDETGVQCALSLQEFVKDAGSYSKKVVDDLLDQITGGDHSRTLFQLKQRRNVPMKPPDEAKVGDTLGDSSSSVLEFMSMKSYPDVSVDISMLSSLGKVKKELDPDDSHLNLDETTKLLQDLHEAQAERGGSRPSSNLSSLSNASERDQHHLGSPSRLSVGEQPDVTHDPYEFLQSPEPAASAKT

[5] = system: SK-UT-1 cells; assay: RNA-sequencing of TP-472 vs control treated SK-UT-1 cells; format: cell-based, human
Procedure: To determine the mechanism underlying the inhibitory effect of BRD9 inhibition on the uLMS, the SK-UT-1 cells were treated with iBRD9 TP-472 (5 μM) for 48 h. RNA was isolated using Trizol. RNA quality and quantity were assessed using the Agilent bio-analyzer. Strand-specific RNA-SEQ libraries were prepared using a TruSEQ total RNA-SEQ library protocol (Illumina provided). Library quality and quantity were assessed using the Agilent bio-analyzer and libraries were sequenced using an Illumina NovaSEQ6000 (illumine provided reagents and protocols).
A variety of R packages was used for this analysis. All graphics and data wrangling were handled using the tidyverse suite of packages. All packages used are available from the Comprehensive R Archive Network (CRAN), the Bioconductor project, or Github. The reads were mapped to the human reference transcriptome using STAR, version 2.6.1d (GitHub, Inc., San Francisco, CA, USA). The quality of raw reads, as well as the results of STAR mapping, are generated using fastqc and multiqc. Raw reads were mapped to the human reference transcriptome using Salmon, version 1.4.0. After reading mapping with Salmon, the tximport software package (Bioconductor project, accessed on 27 Oct. 2021) was used to read Salmon outputs into the R environment. Annotation data from Gencode V34 was used to summarize data from transcript-level to gene-level.
For Parsimonious gene correlation network analysis (PGCNA), normalized matrix of DEGs (Adjusted p-Values<0.05 and […]; n=3583) and the top 80% of the most variance genes across samples (n=10,848) were used to network construction. The matrix was used to calculate Spearman rank correlations for all gene pairs using the Python PGCNA2 package. For each gene (row) in a correlation matrix, only the three most correlated edges per gene were retained. The correlation matrices were clustered 100 times using the fast unfolding of communities in a large network's algorithm and the best (judged by modularity score) were used for downstream analysis. Gephi package with the ForceAt-1as2 layout method was used to visualize the network. Enrichment analyses were performed using the Enrichr web server (Ma′ayan lab at Icahn School of Medicine at Mount Sinai, accessed on 10 Jan. 2022) through EnrichR package in R software. Top biological process GO terms with the false discovery rate (FDR)[…] were analyzed using REVIGO to summarize and find a representative subset of the terms. STRING database (accessed on 27 Apr. 2022), which is the online search tool to protein-protein network (PPI) construction, was used to reconstruct each modules network (A combined score≥0.4 of PPI pairs was considered significant), then the Cytoscape software was employed to analyze the obtained networks. In addition, the Venn diagram online tool provided by VIB and Ghent University (accessed on 27 Apr. 2022) was used to investigate the intersection of DEGs and selected modules.
To determine the mechanistic action of TP-472 inhibition on uLMS cells, RNA-sequencing analysis was performed in control and TP-472 treated cells (n=4 each).

[6] = system: MES-SA cells; assay: Proliferation assay (trypan blue exclusion), MES-SA; format: cell-based, human; conditions: 1-25 μM, 48 h, FIG. 4D
Procedure: as §1, §2, §3

[7] = system: BCL-2; assay: Western blot of BCL-2 protein levels in SK-UT-1 cells; format: cell-based, human; conditions: dose-dependent manner, FIG. 4E-4F
Procedure: Cells were collected and lysed in RIPA lysis buffer with protease and phosphatase inhibitor cocktail (Thermo Scientific, Waltham, MA, USA), the protein was quantified using the Bradford method (Bio-Rad Protein Assay kit). The antigen—antibody complex was detected with Trident Femto Western HRP substrate (Gene-Tex, Irvine, CA, USA). Specific protein bands were visualized using ChemiDoc XRS ♭ molecular imager (Bio-Rad, Hercules, CA, USA).
as §3

[8] = system: melanoma; conditions: by suppressing ECM-mediated oncogenic signaling and inducing apoptosis; cited from earlier work
[9] = system: SK-UT-1 cells; assay: qRT-PCR validation of cell cycle and apoptosis genes; format: cell-based, human; conditions: iBRD9 treatment
Procedure: Total RNA was isolated using Trizol reagent (Invitrogen, Carlsbad, CA, USA). The concentration of total RNA was determined using NanoDrop (Thermo Scientific, Waltham, MA, USA). One microgram of total RNA from each sample was reverse transcribed to complementary DNA (cDNA) using the High-Capacity cDNA Transcription Kit (Thermo Scientific, Waltham, MA, USA). Quantitative real-time polymerase chain reaction (qRT-PCR) was performed to determine the messenger RNA (mRNA) expression of several genes listed with their primer sequences in Table 2. The real-time PCR reactions were performed using CFX96 PCR instrument using SYBR Green Supermix (Bio-Rad, Hercules, CA, USA). 18S was used as an internal control. The results are presented as relative gene expression using CFX Maestro™. The assay was performed three times in triplicate.
Quantitative real-time PCR was performed to determine the mRNA expression of genes as described previously. An equal amount of cDNA from each sample was added to the Master mix containing appropriate primer sets and SYBR green supermix (Bio-Rad) in a 20 μL reaction volume. All samples were analyzed in triplicates. Real-time PCR analyses were performed using a Bio-Rad CFX96. Cycling conditions included denaturation at 95° C. for 2 min followed by 40 cycles of 95° C. for 5 s and 60° C. for 30 seconds then 65° C. for 5 seconds. […]

[10] = system: SW48 colon cancer cells; conditions: cited from earlier work
[11] = molecular target: CECR2 BRD (Homo sapiens, UniProt Q9BXF3); conditions: within cells; cited from earlier work
Sequence of CECR2 BRD (Q9BXF3 434-538 limits assumed): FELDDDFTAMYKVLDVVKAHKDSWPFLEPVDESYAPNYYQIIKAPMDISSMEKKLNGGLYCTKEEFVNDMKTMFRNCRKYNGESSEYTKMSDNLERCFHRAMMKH

[12] = system: endometrial cancer cells; conditions: cited from earlier work
[13] = SK-UT-1 cells, 5 μM, 48 h, n=4 each
[14] = module I, SK-UT-1, TP-472 5 μM 48 h vs control
[15] = module III, SK-UT-1, TP-472 5 μM 48 h vs control
[16] = module VI, SK-UT-1, TP-472 5 μM 48 h vs control
[17] = module VII, SK-UT-1, TP-472 5 μM 48 h vs control

Cc1sc2c(c1C)C(c1ccc(Cl)cc1)=N[C@@H](CC(=O)OC(C)(C)C)c1nnc(C)n1-2 [JQ1]
tumor growth in ovarian cancer [1]: suppresses tumor growth
IL-6 and TNF levels [2]: reduce

CC(=O)c1cc(-c2cc(C(=O)NC3CC3)ccc2C)c2ncccn12 [TP-472]
effect on proliferation of SK-UT-1 cells [3]: dose-dependent inhibitory effect
potency for BRD9 [4]: high potency
mRNA levels of BAK ([5]; RNA-seq, treated SK-UT-1 cells vs control, FIG. 7B): significantly increased
CDKN1A expression ([5]; RNA-seq, treated uLMS cells vs control, FIG. 7A): significantly higher
expression of AKT1 ([5]; RNA-seq, treated uLMS cells, FIG. 7C): markedly decreased
expression of AKT2 ([5]; RNA-seq, treated uLMS cells, FIG. 7D): significantly decreased
expression of Gill ([5]; RNA-seq, uLMS cells, FIG. 7E): significantly decreased
GLI2 expression ([5]; RNA-seq, uLMS cells, FIG. 7F): markedly reduced
differentially expressed genes (DEGs), down [5, 13]: 1741
differentially expressed genes (DEGs), total [5, 13]: 3583
differentially expressed genes (DEGs), up [5, 13]: 1842
FC of hub gene CEBPB [5, 14]: 1.75
FC of hub gene EGR1 [5, 14]: 1.63
FC of hub gene FOS [5, 14]: 1.50
FC of hub gene GATA2 [5, 14]: 2.26
FC of hub gene GRIN1 [5, 14]: 2.54
FC of hub gene MYC [5, 14]: 1.56
FC of hub gene SHH [5, 14]: 4.66
FC of hub gene SOX9 [5, 14]: 2.02
FC of hub gene STX1A [5, 14]: 1.78
FC of hub gene TERT [5, 14]: 1.68
FC of hub gene CCT2 [5, 15]: 1.61
FC of hub gene CYCS [5, 15]: 1.86
FC of hub gene EIF2S1 [5, 15]: 1.52
FC of hub gene HSPA8 [5, 15]: 1.75
FC of hub gene IMP3 [5, 15]: 1.62
FC of hub gene NIP7 [5, 15]: 1.92
FC of hub gene NOP56 [5, 15]: 1.64
FC of hub gene NOP58 [5, 15]: 1.74
FC of hub gene PA2G4 [5, 15]: 1.55
FC of hub gene RPL26L1 [5, 15]: 1.58
FC of hub gene BYSL [5, 16]: 1.75
FC of hub gene CCND1 [5, 16]: 2.21
FC of hub gene FN1 [5, 16]: 2.40
FC of hub gene HRAS [5, 16]: 1.60
FC of hub gene JUN [5, 16]: 3.13
FC of hub gene KIT [5, 16]: 20.37
FC of hub gene LEF1 [5, 16]: 6.22
FC of hub gene MRTO4 [5, 16]: 2.16
FC of hub gene PDCD11 [5, 16]: 1.69
FC of hub gene RRP9 [5, 16]: 2.71
FC of hub gene CDK1 [5, 17]: −1.56
FC of hub gene CHEK2 [5, 17]: −1.69
FC of hub gene FGF2 [5, 17]: −1.56
FC of hub gene HLTF [5, 17]: −1.78
FC of hub gene MIS18BP1 [5, 17]: −1.53
FC of hub gene STAG2 [5, 17]: −1.51
FC of hub gene TIA1 [5, 17]: −1.60
FC of hub gene TOP2A [5, 17]: −1.52
FC of hub gene TOP2B [5, 17]: −1.52
FC of hub gene WDHD1 [5, 17]: −1.52
effect on proliferation of MES-SA cells [6]: dose-dependent inhibitory effect
protein levels of BCL-2 [7]: significantly decreased
tumor growth in melanoma [8]: blocked tumor growth
expression of CDKN1A by q-PCR ([9]; FIG. 7G): significant increase
expression of BAK1 by q-PCR ([9]; FIG. 7H): significant increase

CCCS(=O)(=O)c1nc(NC2CC2)cc(-c2ccc3c(ccn3C3CC(C)(C)NC(C)(C)C3)c2)n1 [NVS-CECR2-1]
cytotoxic activity against human cancer cells [10]: killing SW48 colon cancer cells by inducing apoptosis
chromatin binding of CECR2 BRD [11]: inhibits

O=C1NC(=NCc2cccs2)S/C1=C\c1ccc2ncccc2c1 [RO3306]
cell apoptosis and cell cycle in endometrial cancer cells [12]: induced cell apoptosis and caused G2/M phase arrest
